In patent EP0356325A1, “Pharmaceutical composition containing a slightly water-soluble active substance and at least a glyceride gelled by at least a cellulose polymer” (Aiache, Jean-Marc, priority 1988, dated 1990):

Test: Doxycycline base content and epimer contents after storage (Tableau 2)
Format: physicochemical
Text: En outre, le tableau 2 présente une comparaison des teneurs en épimères (en p. cent) de deux préparations contenant la doxycycline (sous forme hyclate), avec le principe actif ayant servi à leur formulation. La formulation testée correspond à un produit stable.

[1] = après 1 mois de conservation à 37°C (étuve sèche), p.cent of area under chromatographic peaks
[2] = après 3 mois de conservation à température ambiante, p.cent of area under chromatographic peaks

Doxycycline base (après 1 mois de conservation à 37°C (étuve sèche)): 858,2 mg/g | 6 Epidoxycycline [1]: 0,96 p.cent | Déméclocycline [1]: 1,99 p.cent | Oxytétracycline [1]: 0,65 p.cent | Doxycycline base (après 3 mois de conservation à température ambiante): 899,0 mg/g | 6 Epidoxycycline [2]: 0,30 p.cent | Déméclocycline [2]: 1,81 p.cent | Oxytétracycline base [2]: 0,43 p.cent
Compound: C[C@H]1c2cccc(O)c2C(=O)C2=C(O)[C@]3(O)C(=O)C(C(N)=O)=C(O)[C@@H](N(C)C)[C@@H]3[C@@H](O)[C@@H]21 [Doxycycline hyclate, hyclate de doxycycline]
